Measured values taken from patent US11180452B2, “Methods and compositions for selectively inhibiting pathogenic microbes” (priority 2019, dated 2021).
Values after ≈ are worked out from the molar mass of the structure shown. Read-outs that look alike come from different tables or passages of the source.

Columns and labels:
[1] = tested on: Bacillus thuringiensis; type: cell-based; conditions: Bacillus thuringiensis Berliner ATCC: 10792; for MIC: Bacillus thuringiensis, read-out: MIC
[2] = tested on: NoSpin HepaRG cells; test: HepaRG cytotoxicity, MTT assay EC50; type: cell-based, human; conditions: Homo sapiens, HepaRG; cytotoxicity EC50, Table 9
Protocol: Additionally, the antimicrobial compounds were analyzed for cytotoxicity. […] We utilized the standard MTT assay (Promega CellTiter 96) and GraphPad Prism 7 software to determine EC50 values for each analogue. Briefly, 20,000 HepG2 cells in 200 μl of the ATCC recommended media were seeded in each well of a 96-well plate with a moisture barrier created in the outermost wells. The cells were allowed to attach overnight at 37° C., and then observed under phase contrast microscopy for proper morphological characteristics. […] Once incubations were complete, the spectrophotometric absorbance of the samples was measured at a wavelength of 595 nm. […] For the HepaRG assay, NoSpin HepaRG™ cells (Lonza, cat #NSHPRG) were thawed and plated with 20,000 cells per well. They were allowed to attach for 4 h (optimal DME profile per Lonza's testing) before dosing following the identical protocol as above.

[3] = tested on: Candida glabrata; test: Candida glabrata MIC / MFC; type: cell-based; conditions: Nakaseomyces glabratus; for MFC: read-out: MFC; for MIC: read-out: MIC
[4] = tested on: Trichophyton rubrum; test: MIC against Trichophyton rubrum; type: cell-based; conditions: Trichophyton rubrum Castellani Sabouraud ATCC: 28188; read-out: MIC
[5] = tested on: Burkholderia thailandensis Brett et al ATCC: 700388; test: microbe, parasite or virus in culture; type: cell-based
[6] = tested on: Bacillus subtilis; test: Bacillus subtilis MIC / MBC; type: cell-based; conditions: for MBC: Bacillus subtilis NRRL: B-571, minimum bactericidal concentration; for MIC: Bacillus subtilis, Bacillus subtilis (Ehrenberg 1835) Cohn 1872 NRRL: B-571, read-out: MIC
[7] = tested on: Francisella tularensis subsp. Holarctica Strain LVSR NR-597; test: microbe, parasite or virus in culture; type: cell-based
[8] = tested on: C. albicans; test: Candida albicans MIC / MFC; type: cell-based
[9] = tested on: N. gonorrhoeae; test: N. gonorrhoeae MIC; type: cell-based; conditions: Neisseria gonorrhoeae, strain #167
[10] = tested on: Francisella tularensis strains; test: microbe, parasite or virus in culture; type: cell-based
[11] = Candida glabrata #584 (Table 2), minimum fungicidal concentration
[12] = Candida glabrata #584 (Table 2)
[13] = C. albicans strain #761, read-out: MIC
[14] = C. albicans strain #762, read-out: MFC
[15] = read-out: F. tularensis BSL-3 MIC, Strain 100
[16] = read-out: F. tularensis BSL-3 MIC, strain HN-63
[17] = read-out: F. tularensis BSL-3 MIC, strain LVS
[18] = read-out: F. tularensis BSL-3 MIC, strain MA00-2987
[19] = read-out: F. tularensis BSL-3 MIC, strain MO #1
[20] = read-out: F. tularensis BSL-3 MIC, strain MO #2
[21] = read-out: F. tularensis BSL-3 MIC, strain MO #3
[22] = read-out: F. tularensis BSL-3 MIC, strain OR-96
[23] = read-out: F. tularensis BSL-3 MIC, strain SCHU S4
[24] = read-out: F. tularensis BSL-3 MIC, strain WY-96
[25] = read-out: MAX, highest MIC over the Francisella tularensis strains
[26] = read-out: MIN, lowest MIC over the Francisella tularensis strains

Row | SMILES | MBC [1] [µg/mL] | MIC [1] [µg/mL] | EC50 [2] [µg/mL] | MIC [3, 12] [µg/mL] | MIC [4] [µg/mL] | MIC [5] [µg/mL] | MBC [6] [µg/mL] | MIC [6] [µg/mL] | MIC [7] [µg/mL] | MBC [5] [µg/mL] | further results
1 | Fc1ccc(Sc2c[nH]c3ccc(Br)cc23)cc1 [Compound 174P, 5-bromo-3-((4-fluorophenyl)thio)-1H-indole] | > 50 | 1.56 (≈ 4.84 µM) | 38.3 (≈ 119 µM) | 3.13 (≈ 9.71 µM) | 2.01 (≈ 6.24 µM) | > 50 | 3.13 (≈ 9.71 µM) | 1.56 (≈ 4.84 µM) |  |  | MFC [3, 11]: > 50 µg/mL
2 | Oc1ccc(Sc2c[nH]c3ccc(C(F)(F)F)cc23)cc1 [Compound 177B, 4-((5-(trifluoromethyl)-1H-indol-3-yl)thio)phenol] |  |  | 27.7 (≈ 89.6 µM) | > 50 |  | 25 (≈ 80.8 µM) |  | 1.56 (≈ 5.04 µM) | 3.13 (≈ 10.1 µM) | > 50 | 
3 | CCc1ccccc1Sc1c(CO)[nH]c2ccc(C(F)(F)F)cc12 [Compound 177I, (3-((2-ethylphenyl)thio)-5-(trifluoromethyl)-1H-indol-2-yl)methanol] |  |  | 31.3 (≈ 89.1 µM) | > 50 |  | > 50 |  | 3.13 (≈ 8.91 µM) | 3.13 (≈ 8.91 µM) | > 50 | 
4 | FC(F)(F)c1ccc2[nH]cc(Sc3ccccc3C(F)(F)F)c2c1 [Compound 177F, 5-(trifluoromethyl)-3-((2-(trifluoromethyl)phenyl)thio)-1H-indole] |  |  | 29.8 (≈ 82.5 µM) | 50 (≈ 138 µM) |  | > 50 |  | 1.56 (≈ 4.32 µM) | 1.56 (≈ 4.32 µM) | > 50 | 
5 | Clc1ccc(Sc2c[nH]c3ccc(Br)cc23)cc1 [Compound 174J, 5-bromo-3-((4-chlorophenyl)thio)-1H-indole] | 1.56 (≈ 4.61 µM) | 1.56 (≈ 4.61 µM) | 25.3 (≈ 74.7 µM) | 6.25 (≈ 18.5 µM) | 1.05 (≈ 3.1 µM) | > 50 | 3.13 (≈ 9.24 µM) | 1.56 (≈ 4.61 µM) |  |  | MFC [3, 11]: > 50 µg/mL
6 | Brc1ccc2[nH]cc(Sc3c[nH]c4ccccc34)c2c1 [Compound 174AL, 3-((1H-indol-3-yl)thio)-5-bromo-1H-indole] | > 50 |  | 26.1 (≈ 76 µM) |  |  | > 50 |  |  |  |  | 
7 | Clc1ccc2[nH]cc(Sc3ccc(Br)cc3)c2c1 [Compound 174C, 3-((4-bromophenyl)thio)-5-chloro-1H-indole] | 1.56 (≈ 4.61 µM) | 1.56 (≈ 4.61 µM) | 25.4 (≈ 75 µM) | 3.13 (≈ 9.24 µM) | 2.11 (≈ 6.23 µM) | > 50 | 3.13 (≈ 9.24 µM) | 1.56 (≈ 4.61 µM) | 1.56 (≈ 4.61 µM) |  | 
8 | OCc1[nH]c2ccc(Br)cc2c1Sc1ccccc1Br [Compound 177H, (5-bromo-3-((2-bromophenyl)thio)-1H-indol-2-yl)methanol] |  |  | 31.8 (≈ 77 µM) | 50 (≈ 121 µM) |  | > 50 |  | 1.56 (≈ 3.78 µM) | 3.13 (≈ 7.58 µM) | > 50 | 
9 | Fc1ccc2[nH]cc(Sc3ccccc3Br)c2c1 [Compound 177E, 3-((2-bromophenyl)thio)-5-fluoro-1H-indole] |  |  | 31.6 (≈ 98.1 µM) | 25 (≈ 77.6 µM) |  | > 50 |  | 1.56 (≈ 4.84 µM) | 0.78 (≈ 2.42 µM) | > 50 | 
10 | CCc1ccccc1Sc1c[nH]c2ccc(C(F)(F)F)cc12 [Compound 177G, 3-((2-ethylphenyl)thio)-5-(trifluoromethyl)-1H-indole] |  |  | 29.5 (≈ 91.8 µM) | > 50 |  | > 50 |  | 1.56 (≈ 4.85 µM) | 0.78 (≈ 2.43 µM) | > 50 | 
11 | Fc1ccccc1Sc1c[nH]c2ccc(C(F)(F)F)cc12 [Compound 177D, 3-((2-fluorophenyl)thio)-5-(trifluoromethyl)-1H-indole] |  |  | 27.1 (≈ 87.1 µM) | 25 (≈ 80.3 µM) |  | > 50 |  | 1.56 (≈ 5.01 µM) | 0.78 (≈ 2.51 µM) | > 50 | 
12 | Brc1ccc(Sc2c[nH]c3cccc(Br)c23)cc1 [Compound 174D, 4-bromo-3-((4-bromophenyl)thio)-1H-indole] | 3.13 (≈ 8.17 µM) | 1.56 (≈ 4.07 µM) | 23.2 (≈ 60.6 µM) |  | 2.38 (≈ 6.21 µM) | > 50 |  | 1.56 (≈ 4.07 µM) | 1.56 (≈ 4.07 µM) |  | MIC [8, 13]: > 50 µg/mL; MFC [8, 14]: 12.5 µg/mL (≈ 32.6 µM); MIC ([3]; C. glabrata strain #325): > 50 µg/mL
13 | FC(F)(F)c1ccccc1Sc1c[nH]c2ccc(Br)cc12 [Compound 174AV, 5-bromo-3-((2-(trifluoromethyl)phenyl)thio)-1H-indole] | 1 (≈ 2.69 µM) | 1 (≈ 2.69 µM) |  | 25 (≈ 67.2 µM) |  |  | 2 (≈ 5.37 µM) | 1 (≈ 2.69 µM) | 1 (≈ 2.69 µM) |  | MIC [9]: 3.12 µg/mL (≈ 8.4 µM); MIC50 [10]: 4 µg/mL (≈ 10.7 µM); MIC [10, 15]: 6 µg/mL (≈ 16.1 µM); MIC [10, 16]: 4 µg/mL (≈ 10.7 µM); MIC [10, 17]: 4 µg/mL (≈ 10.7 µM); MIC [10, 18]: 3.67 µg/mL (≈ 9.86 µM); MIC [10, 19]: 3 µg/mL (≈ 8.06 µM); MIC [10, 20]: 2 µg/mL (≈ 5.37 µM); MIC [10, 21]: 4 µg/mL (≈ 10.7 µM); MIC [10, 22]: 4 µg/mL (≈ 10.7 µM); MIC [10, 23]: 4 µg/mL (≈ 10.7 µM); MIC [10, 24]: 4 µg/mL (≈ 10.7 µM); MIC [10, 25]: 6 µg/mL (≈ 16.1 µM); MIC [10, 26]: 2 µg/mL (≈ 5.37 µM)
14 | Clc1ccc(Sc2c[nH]c3ccc(Br)cc23)c(Cl)c1 [Compound 174V, 5-bromo-3-((2,4-dichlorophenyl)thio)-1H-indole] | 2.5 (≈ 6.7 µM) | 1.25 (≈ 3.35 µM) | 24.8 (≈ 66.5 µM) | 3.13 (≈ 8.39 µM) | 0.58 (≈ 1.55 µM) | > 50 | 2.5 (≈ 6.7 µM) | 1.25 (≈ 3.35 µM) |  |  | MFC [3, 11]: 12.5 µg/mL (≈ 33.5 µM)
15 | Nc1cc(Br)ccc1Sc1c[nH]c2ccc(Br)cc12 [Compound 174X, 5-bromo-2-((5-bromo-1H-indol-3-yl)thio)aniline] | 2.5 (≈ 6.28 µM) | 2.5 (≈ 6.28 µM) | 30.2 (≈ 75.9 µM) |  | 0.62 (≈ 1.56 µM) | > 50 | > 10 | 1.56 (≈ 3.92 µM) |  |  | MFC ([8]; C. albicans strain #761, read-out: MFC): > 50 µg/mL; MIC [8, 13]: 12.5 µg/mL (≈ 31.4 µM); MFC [8, 14]: > 50 µg/mL; MIC ([8]; C. albicans strain #762, read-out: MIC): 12.5 µg/mL (≈ 31.4 µM); MFC ([3]; C. glabrata strain #325): > 50 µg/mL; MIC ([3]; C. glabrata strain #325): 12.5 µg/mL (≈ 31.4 µM); MFC [3, 11]: 6.25 µg/mL (≈ 15.7 µM); MIC50 [10]: 4 µg/mL (≈ 10 µM); MIC [10, 15]: 8 µg/mL (≈ 20.1 µM); MIC [10, 16]: 4 µg/mL (≈ 10 µM); MIC [10, 17]: > 8 µg/mL; MIC [10, 18]: 4 µg/mL (≈ 10 µM); MIC [10, 19]: 2.67 µg/mL (≈ 6.71 µM); MIC [10, 20]: 2 µg/mL (≈ 5.02 µM); MIC [10, 21]: 4 µg/mL (≈ 10 µM); MIC [10, 22]: 4 µg/mL (≈ 10 µM); MIC [10, 23]: 4 µg/mL (≈ 10 µM); MIC [10, 24]: 3 µg/mL (≈ 7.54 µM); MIC [10, 25]: > 8 µg/mL; MIC [10, 26]: 2 µg/mL (≈ 5.02 µM)
